Results from patent US20260191802A1, “DRUG TO TREAT STIMULANT ADDICTION” (SINGLE DOSE THERAPEUTICS, INC., priority 2023, published 2026).

How the values were obtained:
[1] = Onset of therapeutic effect after oral administration; assay type: in vivo; details: orally administered
Text: The objective of the present disclosure is to improve the standard of care in treating mental disorders, such as StUD, by facilitating extinction learning through the administration of a therapeutically effective amount of bromantane or an analogue thereof. While bromantane or an analogue of bromantane can be administered uncompounded, administering a pharmaceutical preparation that ensures consistent absorption and fosters patient adherence to the treatment regimen is advantageous. For example, the onset of therapeutic effect for orally administered crystalline bromantane free base is slow (2-3 hours) due to solubility-limited absorption and high first-pass extraction. Preparations that improve bromantane's solubility or bioavailability to produce a faster onset of therapeutic effect are advantageous for addressing acute incentive salience expeditiously in the treatment of StUD, thereby increasing the likelihood of patient adherence to the treatment regimen and reducing the likelihood of relapse. Accordingly, the present disclosure also provides novel, advantageous pharmaceutical preparations of bromantane and their methods of use.

[2] = Dynamic Vapor Sorption (DVS) isothermal water sorption and desorption; assay type: physicochemical; details: 25° C. and 80% RH
Protocol: The solubility advantage imparted by a specific salt form of bromantane compared to the free base form cannot be predicted with certainty because the interactions of the counterion with the therapeutic agent and dissolution medium are unique and complex. Empirical testing is necessary. Dynamic Vapor Sorption (DVS) testing was performed to compare the isothermal water sorption and desorption behaviors of bromantane free base Form I [FIG. 22] with that of bromantane hydrochloride Form I [FIG. 23].

[3] = Aqueous equilibrium solubility, slurry in water, HPLC of supernatant; assay type: physicochemical; details: 24 hours of equilibration at room temperature
[4] = tested on: participants who had self-reported drug dependencies to a drug of concern; assay: Exploratory study of bromantane intervention in participants with self-reported drug dependencies; assay type: in vivo, human
Protocol: To investigate the utility of bromantane as a single-agent pharmacological intervention to interrupt stimulant dependence, an exploratory study was conducted with participants who had self-reported drug dependencies to a drug of concern. The intervention consisted of Test Article (bromantane) administered at a dose of 50 mg qd po for 7 days, starting on the first day of Week 1 of the study. Results from the exploratory study are summarized in [FIG. 2]. The number of days the drug of concern was used by the participant during each 1-week period during the 4-week study is shown in the Drug Dependency column.
In addition to being an effective single-agent pharmacological intervention to interrupt stimulant dependence, it was discovered that bromantane has utility as a treatment for certain comorbidities that are specifically underpinned by maladaptive learning, such as occupational burnout exacerbated by conditioned fear responses and attention-deficit/hyperactivity disorder arising from inhibitory control dysfunction. […] Therefore, the present disclosure also provides novel therapeutic methods of use for bromantane to facilitate extinction learning in the treatment of mental disorders or syndromes.

[5] = participants with cocaine or amphetamine dependencies, 50 mg qd po for 7 days, 4-week study

SMILES	onset of therapeutic effect [1]	hygroscopicity (water gain by DVS) [2]	equilibrium solubility in water (solution state concentration of bromantane) [3]	cravings and withdrawal syndrome associated with addiction to stimulants of abuse ([4]; amphetamine, methamphetamine, cocaine)	counterproductive behaviors and thought patterns triggered by conditioned stimuli ([4]; analysis of subjective effects reported by participants)	secondary dependence ([4]; in vivo)	opioid use ([4]; participant with opioid dependence, during the period of intervention, 50 mg qd po for 7 days)	abstinence from drug of concern [4, 5]	duration of maintained abstinence [4, 5]	caffeine use ([4]; participants, 50 mg qd po for 7 days)	insomnia caused by rumination ([4]; self-reported by participants)	temperament (threshold for irritability or anger) ([4]; self-reported by participants)
Brc1ccc(NC2C3CC4CC(C3)CC2C4)cc1 (stereo not drawn) [bromantane free base Form I]	2 to 3 h	non-hygroscopic (x<0.2% w/w gain at 25 °C and 80% RH)	below the detection limit	–	–	–	–	–	–	–	–	–
Brc1ccc(NC2C3CC4CC(C3)CC2C4)cc1 (stereo not drawn) [bromantane]	–	–	–	eliminates or significantly reduces	pronounced reduction	without leading to secondary dependence	reduction in opioid use	achieved abstinence on the first day of intervention	maintain abstinence for approximately three weeks	unplanned reduction in caffeine use	Alleviation of insomnia	improved temperaments
